Results reported in US20150299219A1, “BICYCLIC PYRAZOLONE COMPOUNDS AND METHODS OF USE” (Calitor Sciences, LLC, priority 2014, published 2015).

Assays:
Type in all cases: biochemical
Axl (h) = target: T1, Axl (h) (Homo sapiens, UniProt P30530); test: Axl (h) kinase assay
T1 construct: purchased Millipore UK Ltd
T1 sequence (P30530 26-894): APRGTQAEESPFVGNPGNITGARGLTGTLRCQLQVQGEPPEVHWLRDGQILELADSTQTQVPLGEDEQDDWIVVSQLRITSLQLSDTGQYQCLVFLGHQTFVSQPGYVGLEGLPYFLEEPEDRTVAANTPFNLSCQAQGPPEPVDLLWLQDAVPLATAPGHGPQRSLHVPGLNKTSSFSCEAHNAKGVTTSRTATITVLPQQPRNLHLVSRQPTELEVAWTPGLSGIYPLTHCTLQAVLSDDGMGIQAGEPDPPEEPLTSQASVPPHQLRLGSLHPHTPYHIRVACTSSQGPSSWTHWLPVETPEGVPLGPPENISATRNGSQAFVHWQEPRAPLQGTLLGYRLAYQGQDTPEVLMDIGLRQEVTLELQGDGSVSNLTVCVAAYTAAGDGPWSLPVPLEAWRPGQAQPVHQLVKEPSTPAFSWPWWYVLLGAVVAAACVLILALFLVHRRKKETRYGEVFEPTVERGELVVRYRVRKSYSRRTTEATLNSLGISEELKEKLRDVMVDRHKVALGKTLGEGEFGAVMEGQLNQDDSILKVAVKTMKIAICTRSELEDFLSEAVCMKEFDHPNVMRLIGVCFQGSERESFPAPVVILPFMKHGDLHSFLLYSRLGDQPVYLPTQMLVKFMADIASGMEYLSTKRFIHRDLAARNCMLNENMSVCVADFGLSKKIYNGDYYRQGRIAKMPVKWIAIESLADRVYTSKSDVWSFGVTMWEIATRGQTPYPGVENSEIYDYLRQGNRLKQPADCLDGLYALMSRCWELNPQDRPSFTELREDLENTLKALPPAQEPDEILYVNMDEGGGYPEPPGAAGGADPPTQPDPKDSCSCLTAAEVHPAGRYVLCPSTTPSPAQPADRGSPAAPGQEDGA
Procedure: (§1) The above assay procedure can be used to determine the IC50 for inhibition and/or the inhibition constant, Ki. The IC50 is defined as the concentration of compound required to reduce the enzyme activity by 50% under the condition of the assay. The IC50 value is estimated by preparing a 10 point curve using a 1/2 log dilution series (for example, a typical curve may be prepared using the following compound concentrations: 10 μM, 3 μM, 1 μM, 0.3 μM, 0.1 μM, 0.03 μM, 0.01 μM, 0.003 μM, 0.001 μM and 0 μM).
(§2) Axl (h) is incubated with 8 mM MOPS pH 7.0, 0.2 mM EDTA, 250 μM KKSRGDYMTMQIG, 10 mM MgAcetate and [γ-^33P-ATP] (specific activity approx. 500 cpm/pmol, concentration as required). The reaction is initiated by the addition of the MgATP mix. After incubation for 40 minutes at room temperature, the reaction is stopped by the addition of 3% phosphoric acid solution. 10 μL of the reaction is then spotted onto a P30 filtermat and washed three times for 5 minutes in 75 mM phosphoric acid and once in methanol prior to drying and scintillation counting.
(§3) The kinase assays described herein were performed at Millipore UK Ltd, Dundee Technology Park, Dundee DD2 1SW, UK.

Mer (h) = target: T2, Mer (h) (Homo sapiens, UniProt Q12866); test: Mer (h) kinase assay
T2 construct: purchased Millipore UK Ltd
T2 sequence (Q12866 21-999): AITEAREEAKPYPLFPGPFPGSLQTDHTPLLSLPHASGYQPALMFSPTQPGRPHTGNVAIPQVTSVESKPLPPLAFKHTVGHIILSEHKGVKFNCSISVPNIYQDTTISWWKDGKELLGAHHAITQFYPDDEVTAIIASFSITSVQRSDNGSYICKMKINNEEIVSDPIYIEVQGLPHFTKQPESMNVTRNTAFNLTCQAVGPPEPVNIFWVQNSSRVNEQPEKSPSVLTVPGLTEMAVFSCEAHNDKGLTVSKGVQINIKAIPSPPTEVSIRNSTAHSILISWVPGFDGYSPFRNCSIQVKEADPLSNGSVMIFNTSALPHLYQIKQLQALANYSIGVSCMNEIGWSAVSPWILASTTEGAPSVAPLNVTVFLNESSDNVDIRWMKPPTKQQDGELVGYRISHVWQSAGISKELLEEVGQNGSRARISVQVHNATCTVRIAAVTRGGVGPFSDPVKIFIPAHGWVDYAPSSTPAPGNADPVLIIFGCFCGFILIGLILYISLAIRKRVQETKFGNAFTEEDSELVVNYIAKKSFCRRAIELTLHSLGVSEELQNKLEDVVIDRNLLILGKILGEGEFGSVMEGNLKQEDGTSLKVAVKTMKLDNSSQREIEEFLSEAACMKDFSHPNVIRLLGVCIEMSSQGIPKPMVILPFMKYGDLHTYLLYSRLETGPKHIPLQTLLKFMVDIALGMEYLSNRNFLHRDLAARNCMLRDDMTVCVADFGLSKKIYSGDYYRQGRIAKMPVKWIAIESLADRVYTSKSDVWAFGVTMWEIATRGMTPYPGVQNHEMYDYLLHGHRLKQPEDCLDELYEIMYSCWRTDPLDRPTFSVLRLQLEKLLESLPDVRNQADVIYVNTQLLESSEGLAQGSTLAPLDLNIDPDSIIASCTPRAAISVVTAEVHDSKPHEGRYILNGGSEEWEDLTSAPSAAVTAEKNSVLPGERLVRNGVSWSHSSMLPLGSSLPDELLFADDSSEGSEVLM
Procedure: as §1
as §2, with “Mer” for “Axl”, “EDTA, 30 mM NaCl,” for “EDTA,”, “GGMEDIYFEFMGGKKK,” for “KKSRGDYMTMQIG,”
as §3

c-Met (h) = target: T3, c-Met (h) (Homo sapiens, UniProt P08581); test: c-Met (h) kinase assay
T3 construct: purchased Millipore UK Ltd
Procedure: Kinase assays can be performed by measurement of incorporation of γ-^33P ATP into immobilized myelin basic protein (MBP). High binding white 384 well plates (Greiner) are coated with MBP (Sigma #M-1891) by incubation of 60 μL/well of 20 μg/mL MBP in Tris-buffered saline (TBS; 50 mM Tris pH 8.0, 138 mM NaCl, 2.7 mM KCl) for 24 h at 4° C. Plates are washed 3× with 100 μL TBS. Kinase reactions are carried out in a total volume of 34 μL in kinase buffer (5 mM Hepes pH 7.6, 15 mM NaCl, 0.01% bovine gamma globulin (Sigma #I-5506), 10 mM MgCl2, 1 mM DTT, 0.02% TritonX-100). Compound dilutions are performed in DMSO and added to assay wells to a final DMSO concentration of 1%. Each data point is measured in duplicate, and at least two duplicate assays are performed for each individual compound determination. Enzyme is added to final concentrations of 10 nM or 20 nM, for example. A mixture of unlabeled ATP and γ-^33P ATP is added to start the reaction (2×10^6 cpm of γ-^33P ATP per well (3000 Ci/mmole) and 10 μM unlabeled ATP, typically. The reactions are carried out for 1 h at room temperature with shaking. Plates are washed 7× with TBS, followed by the addition of 50 μL/well scintillation fluid (Wallac). Plates are read using a Wallac Trilux counter. This is only one format of such assays; various other formats are possible, as known to one skilled in the art.
as §1
as §2, with “Met” for “Axl”, “KKKSPGEYVNIEFG,” for “KKSRGDYMTMQIG,”
as §3

T3 sequence (P08581 25-1390): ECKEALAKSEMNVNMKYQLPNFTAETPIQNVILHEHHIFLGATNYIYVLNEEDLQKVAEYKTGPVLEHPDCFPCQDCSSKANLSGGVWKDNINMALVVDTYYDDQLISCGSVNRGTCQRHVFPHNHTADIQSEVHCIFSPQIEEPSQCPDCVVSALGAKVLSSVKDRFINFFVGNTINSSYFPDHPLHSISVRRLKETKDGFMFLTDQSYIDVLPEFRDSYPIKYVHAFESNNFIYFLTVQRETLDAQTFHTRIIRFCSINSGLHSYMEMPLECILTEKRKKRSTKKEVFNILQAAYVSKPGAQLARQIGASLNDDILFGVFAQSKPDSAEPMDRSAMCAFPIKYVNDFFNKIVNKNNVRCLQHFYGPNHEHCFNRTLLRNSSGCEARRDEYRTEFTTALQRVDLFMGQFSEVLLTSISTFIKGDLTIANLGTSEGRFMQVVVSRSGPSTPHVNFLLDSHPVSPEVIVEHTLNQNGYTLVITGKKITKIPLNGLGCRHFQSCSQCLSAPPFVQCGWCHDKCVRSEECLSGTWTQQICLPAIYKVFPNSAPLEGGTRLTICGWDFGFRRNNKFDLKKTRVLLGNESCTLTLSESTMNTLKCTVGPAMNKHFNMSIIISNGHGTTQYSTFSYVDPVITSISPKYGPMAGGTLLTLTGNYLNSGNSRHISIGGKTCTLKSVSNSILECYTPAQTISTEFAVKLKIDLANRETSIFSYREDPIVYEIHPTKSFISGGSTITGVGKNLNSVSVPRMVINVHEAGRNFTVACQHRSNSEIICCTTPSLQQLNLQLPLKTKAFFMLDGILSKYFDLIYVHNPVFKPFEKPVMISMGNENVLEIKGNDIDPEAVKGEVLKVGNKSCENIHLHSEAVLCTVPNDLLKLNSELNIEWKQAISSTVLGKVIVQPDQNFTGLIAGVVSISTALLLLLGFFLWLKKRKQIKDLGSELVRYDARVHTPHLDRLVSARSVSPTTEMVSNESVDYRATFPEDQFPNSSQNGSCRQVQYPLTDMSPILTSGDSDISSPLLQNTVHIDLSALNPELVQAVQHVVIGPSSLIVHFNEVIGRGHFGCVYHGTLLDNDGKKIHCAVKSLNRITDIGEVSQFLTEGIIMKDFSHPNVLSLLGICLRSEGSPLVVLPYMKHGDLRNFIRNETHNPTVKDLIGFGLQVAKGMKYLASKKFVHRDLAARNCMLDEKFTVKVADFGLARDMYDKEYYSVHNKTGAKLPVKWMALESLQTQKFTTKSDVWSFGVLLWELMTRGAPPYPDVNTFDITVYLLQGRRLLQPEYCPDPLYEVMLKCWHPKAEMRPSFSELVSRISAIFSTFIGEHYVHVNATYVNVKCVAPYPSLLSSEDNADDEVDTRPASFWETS

| SMILES | IC50 (Axl (h)) [nM] | IC50 (Mer (h)) [nM] | IC50 (c-Met (h)) [nM] |
| --- | --- | --- | --- |
| Nc1nccc(Oc2ccc(NC(=O)c3c4n(n(-c5ccccc5)c3=O)CCCC4)cc2F)c1Cl [Ex. 23, N-(4-((2-amino-3-chloropyridin-4-yl)oxy)-3-fluorophenyl)-2-oxo-1-phenyl-1,2,4,5,6,7-hexahydropyrazolo[1,5-a]pyridine-3-carboxamide] | 10 | 14 | 30 |
| Nc1nccc(Oc2ccc(NC(=O)c3c4n(n(-c5ccccc5)c3=O)CCCC4)nc2)c1Cl [Ex. 21, N-(5-((2-amino-3-chloropyridin-4-yl)oxy)pyridin-2-yl)-2-oxo-1-phenyl-1,2,4,5,6,7-hexahydropyrazolo[1,5-a]pyridine-3-carboxamide] | 9 |  | 14 |
| CC(=O)Nc1cc(Oc2ccc(NC(=O)c3c4n(n(-c5ccccc5)c3=O)CCC4)cc2F)ccn1 [Ex. 6, N-(4-((2-acetamidopyridin-4-yl)oxy)-3-fluorophenyl)-2-oxo-1-phenyl-2,4,5,6-tetrahydro-1H-pyrrolo[1,2-b]pyrazole-3-carboxamide] | 36 | 33 | 57 |
| Nc1nccc(Oc2ccc(NC(=O)c3c4n(n(-c5ccccc5)c3=O)CCCC4)cc2)c1Cl [Ex. 22, N-(4-((2-amino-3-chloropyridin-4-yl)oxy)phenyl)-2-oxo-1-phenyl-1,2,4,5,6,7-hexahydropyrazolo[1,5-a]pyridine-3-carboxamide] | 16 |  | 54 |
| O=C(Nc1ccc(Oc2ccnc(NC(=O)C3CC3)c2)c(F)c1)c1c2n(n(-c3ccccc3)c1=O)CCOC2 [Ex. 17, N-(4-((2-(cyclopropanecarboxamido)pyridin-4-yl)oxy)-3-fluorophenyl)-2-oxo-1-phenyl-2,4,6,7-tetrahydro-1H-pyrazolo[5,1-c][1,4]oxazine-3-carboxamide] | 5 |  | 8 |
| CC(=O)Nc1cc(Oc2ccc(NC(=O)c3c4n(n(-c5ccccc5)c3=O)CCCC4)nc2)ccn1 [Ex. 9, N-(5-((2-acetamidopyridin-4-yl)oxy)pyridin-2-yl)-2-oxo-1-phenyl-1,2,4,5,6,7-hexahydropyrazolo[1,5-a]pyridine-3-carboxamide] | 14 | 12 | 27 |
| O=C(Nc1ccc(Oc2ccnc(NC(=O)C3CC3)c2)c(F)c1)c1c2n(n(-c3ccccc3)c1=O)CCC2 [Ex. 5, N-(4-((2-(cyclopropanecarboxamido)pyridin-4-yl)oxy)-3-fluorophenyl)-2-oxo-1-phenyl-2,4,5,6-tetrahydro-1H-pyrrolo[1,2-b]pyrazole-3-carboxamide] | 19 | 4 | 15 |
| CC(=O)Nc1cc(Oc2ccc(NC(=O)c3c4n(n(-c5ccccc5)c3=O)CCOC4)cc2)ccn1 [Ex. 20, N-(4-((2-acetamidopyridin-4-yl)oxy)phenyl)-2-oxo-1-phenyl-2,4,6,7-tetrahydro-1H-pyrazolo[5,1-c][1,4]oxazine-3-carboxamide] | 49 | 44 |  |
| O=C(Nc1ccc(Oc2ccnc(NC(=O)C3CC3)c2)cn1)c1c2n(n(-c3ccccc3)c1=O)CCCC2 [Ex. 8, N-(5-((2-(cyclopropanecarboxamido)pyridin-4-yl)oxy)pyridin-2-yl)-2-oxo-1-phenyl-1,2,4,5,6,7-hexahydropyrazolo[1,5-a]pyridine-3-carboxamide] | 7 | 3 | 5 |
| O=C(Nc1ccc(Oc2ccnc(NC(=O)C3CC3)c2)cn1)c1c2n(n(-c3ccccc3)c1=O)CCOC2 [Ex. 11, N-(5-((2-(cyclopropanecarboxamido)pyridin-4-yl)oxy)pyridin-2-yl)-2-oxo-1-phenyl-2,4,6,7-tetrahydro-1H-pyrazolo[5,1-c][1,4]oxazine-3-carboxamide] | 5 | 6 | 12 |
